Results reported in patent US20240325469A1, “COMPOSITION FOR PREVENTION OR TREATMENT OF COGNITIVE DYSFUNCTION AND INTESTINAL DYSFUNCTION, COMPRISING LACTOBACILLUS PARACASEI NK112, CUSCUTA AUSTRALIS EXTRACT, AND CUSCUTA JAPONICA EXTRACT” (MTHERA PHARMA CO., LTD., priority 2021, published 2024).

Columns and labels:
Type in all cases: in vivo, mouse
[1] = system: male C57BL/6 mice administered with Escherichia coli; experiment: Tail suspension test (TST), Escherichia coli-induced model; conditions: E. coli model mice; once a day for 5 days; NK112 samples 1×10^9 CFU, fluoxetine 1 mg/kg
Procedure: (§1) 5-week-old male C57BL/6 mice having a body weight of 19 to 21 g were divided into a normal group and an experimental group, with 6 mice per group, and acclimatized to the laboratory for 1 week, and then the experiment was performed. The experimental group was administered with Escherichia coli (1×10^9 CFU/mouse/day) orally once a day for 5 days, and the normal group was administered with physiological saline.
Thereafter, 1×10^9 CFU heat-treated lactic acid bacteria (heat-killed NK112), 1×10^9 CFU lactic acid bacteria lysate supernatant (NK112 cytoplasmic component), 1×10^9 CFU lactic acid bacteria lysate precipitate (NK112 cell wall component), or positive control group drug (fluoxetine 1 mg/kg) was administered once a day for 5 days, respectively. […]
According to the method of Steru et al. (Steru L, Chermat R, Thierry B, Simon P (1985) The tail suspension test: A new method for screening antidepressants in mice, Psychopharmacology, Vol. 85; pp. 367-370), A fixation apparatus was attached to the end of the mouse's tail about 1 cm, and then it was hung 50 cm away from the ground in a container with a diameter of 35 cm and a height of 50 cm. The immobility time of the experimental animals was measured for a total of 6 minutes.

[2] = system: corticosterone in blood; experiment: Corticosterone in blood, Escherichia coli-induced model; conditions: E. coli model mice; once a day for 5 days; NK112 samples 1×10^9 CFU, fluoxetine 1 mg/kg
Procedure: as §1
(§2) Thereafter, 1×10^9 CFU heat-treated lactic acid bacteria (heat-killed NK112), 1×10^9 CFU lactic acid bacteria lysate supernatant (NK112 cytoplasmic component), 1×10^9 CFU lactic acid bacteria lysate precipitate (NK112 cell wall component), or positive control group drug (fluoxetine 1 mg/kg) was administered once a day for 5 days, respectively.
In addition, the concentration of corticosterone in blood, which induces anxiety, in each mouse was also measured and shown in Table 2 below.

[3] = system: male C57BL/6 mice administered with Escherichia coli; experiment: Elevated plus maze (EPM) test, Escherichia coli-induced model; conditions: E. coli model mice; once a day for 5 days; NK112 samples 1×10^9 CFU, fluoxetine 1 mg/kg
Procedure: as §1, with “saline. […]” for “saline.”
The elevated plus maze is an experimental apparatus to measure the level of anxiety, depression, or stress, etc. […] The movements of the mouse placed in the elevated plus maze were recorded in a room with a brightness of 20 lux and a video camera installed above.
Specifically, a C57BL/6 mouse was placed facing the open arm with its head in the exact center of the elevated plus maze, and the time and number of times it spent in the open arms and the enclosed arms for 5 minutes were measured. […]
Of the total experimental time, time spent in open arms (OT) was calculated as [time spent in open arms/(time spent in open arms+time spent in enclosed arms)]×100. Open arm entry (OE) was calculated as [open arm entry/(open arm entry+enclosed arm entry)]×100. […]

[4] = system: male C57BL/6 mice administered with Escherichia coli; experiment: Forced swimming test (FST), Escherichia coli-induced model; conditions: E. coli model mice; once a day for 5 days; NK112 samples 1×10^9 CFU, fluoxetine 1 mg/kg
Procedure: as §1, §2
In the case of heat-treated lactic acid bacteria (heat-killed NK112), the precipitate obtained by centrifuging the lactic acid bacteria culture solution in MRS medium was suspended to 1×10^10 CFU/ml, and then heat-treated twice at 70° C. for 10 minutes each to prepare them. […]
A water tank with a height of 40 cm and a diameter of 20 cm was filled with water at a temperature of 25±1° C. to a height of 30 cm. […] The first 2 minutes were not measured as adaptation time, and the immobility time of the experimental animals was measured for the next 4 minutes. […]

[5] = system: male C57BL/6 mice administered with Escherichia coli; experiment: Y-maze task, Escherichia coli-induced model; conditions: spontaneous alternation; E. coli model mice; donepezil 5 mg/kg
Procedure: In order to evaluate spatial cognitive ability, a Y-maze task was performed. In a Y-shaped maze that has a length of 40 cm, a width of 4 cm, and a height of 12 cm and is closed on all sides, three paths were designated as A, B, and C. Then, a mouse was placed in the center and observed for 8 minutes, and the total number of entries entered was recorded. If the mouse entered three different branches in turn, the alternation number was counted as 1. […] The alternation number is defined as entering all three in turn, and the calculation for evaluation of spatial cognitive function was performed using the following equation.
Spontaneous alternation (%)=(total number of alternation/(total number of entries-2))×100

[6] = system: male C57BL/6 mice administered with Escherichia coli; experiment: Novel object recognition test (NORT), Escherichia coli-induced model; conditions: recognition index; E. coli model mice; donepezil 5 mg/kg
Procedure: The mouse was moved to the behavior observation room and acclimatized for 5 minutes. Thereafter, in a 3-minute exposure trial, two identical objects (1 set) were placed in a box 30 cm apart, and the time the mouse recognized the objects for 3 minutes was measured. […] The recognition index (%) is converted into the preference for new objects (time to recognize novel objects/total recognition time)×100.

| Compound | TST test (%, immbolity time) [1] [%] | Corticosterone in blood [2] [ng/mL] | EPM test (%, time spent in open arm) [3] [%] | FST test (%, immobility time) [4] [%] | Y-maze task (%) [5] [%] | NORT test (%) [6] [%] |
| --- | --- | --- | --- | --- | --- | --- |
| CNCCC(Oc1ccc(C(F)(F)F)cc1)c1ccccc1 (stereo not drawn) [Fluoxetine, fluoxetine] | 33.5 | 202.5 | 9.8 | 32.1 |  |  |
| COc1cc2c(cc1OC)C(=O)C(CC1CCN(Cc3ccccc3)CC1)C2 (stereo not drawn) [Donepezil, donepezil] |  |  |  |  | 63.2 | 62.2 |
